Results reported in patent US11739098B2 (BRISTOL-MYERS SQUIBB COMPANY, priority 2017, dated 2023).
Where a name gives a salt, the structure may show the parent alone.

What was measured:
Assay type in all cases: cell-based
human TLR9 = target: T1, human TLR9 (Homo sapiens, UniProt Q9NR96); assay: TLR9 inhibition reporter assay (HEK-Blue cells, SEAP reporter, ODN2006 stimulation); conditions: HEK-Blue cells overexpressing human TLR9, SEAP reporter, ODN2006 5 nM
T1 construct: host or cells: HEK-Blue cells (HEK293-derived reporter line)
T1 sequence (Q9NR96 26-1032): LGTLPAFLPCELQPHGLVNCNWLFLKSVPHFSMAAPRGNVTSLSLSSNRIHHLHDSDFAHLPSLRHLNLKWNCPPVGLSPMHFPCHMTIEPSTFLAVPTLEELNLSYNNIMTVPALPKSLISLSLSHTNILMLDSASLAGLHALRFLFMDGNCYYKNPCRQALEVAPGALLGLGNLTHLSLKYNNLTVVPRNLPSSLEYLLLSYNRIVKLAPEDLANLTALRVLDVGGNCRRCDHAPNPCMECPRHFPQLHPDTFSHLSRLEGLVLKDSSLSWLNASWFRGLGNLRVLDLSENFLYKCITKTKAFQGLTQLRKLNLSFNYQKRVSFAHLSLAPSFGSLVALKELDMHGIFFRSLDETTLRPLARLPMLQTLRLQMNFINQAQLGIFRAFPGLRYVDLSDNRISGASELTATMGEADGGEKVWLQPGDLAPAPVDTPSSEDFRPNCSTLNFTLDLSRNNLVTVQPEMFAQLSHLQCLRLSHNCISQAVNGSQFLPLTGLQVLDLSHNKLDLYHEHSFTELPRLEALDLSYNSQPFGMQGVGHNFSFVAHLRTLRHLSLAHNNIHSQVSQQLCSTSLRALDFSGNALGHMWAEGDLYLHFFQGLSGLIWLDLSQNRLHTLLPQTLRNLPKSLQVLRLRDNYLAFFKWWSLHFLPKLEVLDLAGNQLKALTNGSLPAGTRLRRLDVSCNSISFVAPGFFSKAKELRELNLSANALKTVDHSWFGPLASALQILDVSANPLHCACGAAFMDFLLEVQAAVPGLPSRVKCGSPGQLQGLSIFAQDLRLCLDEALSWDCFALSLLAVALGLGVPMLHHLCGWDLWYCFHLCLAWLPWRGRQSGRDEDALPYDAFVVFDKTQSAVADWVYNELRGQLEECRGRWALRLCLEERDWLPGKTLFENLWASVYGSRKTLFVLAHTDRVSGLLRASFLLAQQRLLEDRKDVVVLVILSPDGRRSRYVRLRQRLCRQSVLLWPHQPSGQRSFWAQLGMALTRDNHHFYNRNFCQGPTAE
Procedure, shortened: (§1)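 Percent inhibition of agonist-induced SEAP secretion in HEK-Blue cells after 22 h at 37 °C. Stimuli: 7.5 μM gardiquimod, 15.9 μM R848, 5 nM ODN2006 for TLR7, TLR8 and TLR9, added after 30 min compound exposure over a 0.05 nM–50 μM range.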

human TLR8 = target: T2, human TLR8 (Homo sapiens, UniProt Q9NR97); assay: TLR8 inhibition reporter assay (HEK-Blue cells, SEAP reporter, R848 stimulation); conditions: HEK-Blue cells overexpressing human TLR8, SEAP reporter, R848 15.9 μM
T2 construct: host or cells: HEK-Blue cells (HEK293-derived reporter line)
T2 sequence (Q9NR97 27-1041): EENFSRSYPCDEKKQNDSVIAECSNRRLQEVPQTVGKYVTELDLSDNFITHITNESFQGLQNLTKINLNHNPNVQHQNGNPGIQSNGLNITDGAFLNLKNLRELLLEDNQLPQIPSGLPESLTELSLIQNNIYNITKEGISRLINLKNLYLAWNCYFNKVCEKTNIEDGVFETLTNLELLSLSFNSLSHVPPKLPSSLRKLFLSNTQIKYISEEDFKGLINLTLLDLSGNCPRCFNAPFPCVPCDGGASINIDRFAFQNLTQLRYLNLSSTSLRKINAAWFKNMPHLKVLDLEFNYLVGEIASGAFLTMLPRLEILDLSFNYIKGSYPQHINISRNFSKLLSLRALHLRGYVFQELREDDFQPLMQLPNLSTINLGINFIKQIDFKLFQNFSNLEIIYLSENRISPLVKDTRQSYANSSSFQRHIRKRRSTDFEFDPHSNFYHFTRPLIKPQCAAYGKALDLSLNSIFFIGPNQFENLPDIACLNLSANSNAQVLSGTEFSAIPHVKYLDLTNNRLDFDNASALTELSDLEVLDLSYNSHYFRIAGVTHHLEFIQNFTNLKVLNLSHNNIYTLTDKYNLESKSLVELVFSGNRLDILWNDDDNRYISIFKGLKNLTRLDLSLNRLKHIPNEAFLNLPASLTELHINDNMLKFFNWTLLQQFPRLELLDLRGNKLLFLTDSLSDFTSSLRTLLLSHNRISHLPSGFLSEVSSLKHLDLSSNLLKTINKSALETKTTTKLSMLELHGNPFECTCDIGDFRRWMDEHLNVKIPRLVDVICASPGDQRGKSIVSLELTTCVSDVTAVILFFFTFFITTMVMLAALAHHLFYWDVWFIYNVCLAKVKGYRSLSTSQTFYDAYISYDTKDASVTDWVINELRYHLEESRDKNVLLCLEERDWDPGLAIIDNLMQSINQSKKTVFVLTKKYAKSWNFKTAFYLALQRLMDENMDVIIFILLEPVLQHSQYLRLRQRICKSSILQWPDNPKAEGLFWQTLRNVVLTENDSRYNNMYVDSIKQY
Procedure, shortened: as §1

human TLR7 = target: T3, human TLR7 (Homo sapiens, UniProt Q9NYK1); assay: TLR7 inhibition reporter assay (HEK-Blue cells, SEAP reporter, gardiquimod stimulation); conditions: HEK-Blue cells overexpressing human TLR7, SEAP reporter, gardiquimod 7.5 μM
T3 construct: host or cells: HEK-Blue cells (HEK293-derived reporter line)
T3 sequence (Q9NYK1 27-1049): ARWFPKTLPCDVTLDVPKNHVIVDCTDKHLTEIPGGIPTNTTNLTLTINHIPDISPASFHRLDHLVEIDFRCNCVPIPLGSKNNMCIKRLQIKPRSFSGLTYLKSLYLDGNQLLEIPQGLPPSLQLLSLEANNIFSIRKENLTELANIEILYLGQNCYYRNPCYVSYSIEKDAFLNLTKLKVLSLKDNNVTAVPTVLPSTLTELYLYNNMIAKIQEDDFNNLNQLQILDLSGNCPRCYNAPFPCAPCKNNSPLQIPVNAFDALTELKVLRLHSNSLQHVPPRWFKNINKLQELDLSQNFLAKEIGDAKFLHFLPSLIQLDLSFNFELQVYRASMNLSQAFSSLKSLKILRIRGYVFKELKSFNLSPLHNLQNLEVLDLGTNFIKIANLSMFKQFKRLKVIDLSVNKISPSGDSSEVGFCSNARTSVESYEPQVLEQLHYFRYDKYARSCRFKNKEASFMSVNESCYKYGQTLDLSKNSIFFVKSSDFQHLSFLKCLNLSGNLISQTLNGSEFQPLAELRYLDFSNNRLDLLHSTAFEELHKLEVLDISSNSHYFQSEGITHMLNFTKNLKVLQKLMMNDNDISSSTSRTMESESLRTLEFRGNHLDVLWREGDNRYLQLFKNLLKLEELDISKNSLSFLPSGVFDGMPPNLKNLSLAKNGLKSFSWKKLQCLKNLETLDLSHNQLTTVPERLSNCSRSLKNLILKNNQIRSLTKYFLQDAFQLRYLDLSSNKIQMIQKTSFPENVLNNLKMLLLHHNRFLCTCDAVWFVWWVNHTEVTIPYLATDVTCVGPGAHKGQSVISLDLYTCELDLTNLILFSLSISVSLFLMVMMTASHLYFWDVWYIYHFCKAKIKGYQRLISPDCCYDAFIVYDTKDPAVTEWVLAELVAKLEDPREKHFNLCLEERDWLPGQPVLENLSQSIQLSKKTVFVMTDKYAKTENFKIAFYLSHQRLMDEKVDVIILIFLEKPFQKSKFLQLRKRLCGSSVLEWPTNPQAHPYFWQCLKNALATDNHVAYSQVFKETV
Procedure, shortened: as §1

| IC50 (human TLR9) [nM] | IC50 (human TLR8) [nM] | IC50 (human TLR7) [nM] | Compound |
| --- | --- | --- | --- |
| 1000 to 50000 | < 100 | < 100 | Cc1cc(-c2[nH]c3ccc(C4CCN(C(=O)CN(C)C)CC4)cc3c2C(C)C)cn2cc(C(=O)N(C)CCO)nc12 [Example 494, 6-(5-(1-(dimethylglycyl)piperidin-4-yl)-3-isopropyl-1H-indol-2-yl)-N-(2-hydroxyethyl)-N,8-dimethylimidazo[1,2-a]pyridine-2-carboxamide] |
| 100 to 1000 | 1000 to 50000 | 1000 to 50000 | Cc1c(-c2ncc3cc[nH]c3n2)[nH]c2ccc(C3CCN(C4CCN(C(C)C)CC4)CC3)cc12 [Example 809, 2-(5-(1′-isopropyl-[1,4′-bipiperidin]-4-yl)-3-methyl-1H-indol-2-yl)-7H-pyrrolo[2,3-d]pyrimidine] |
| 100 to 1000 | < 100 | < 100 | CNCCN1CCC(c2ccc3[nH]c(-c4ccnc5[nH]ncc45)c(C(C)C)c3c2)CC1 [Example 650, 2-(4-(3-isopropyl-2-(1H-pyrazolo[3,4-b]pyridin-4-yl)-1H-indol-5-yl)piperidin-1-yl)-N-methylethanamine dihydrochloride] |
| 1000 to 50000 | < 100 | < 100 | COc1cc(-c2[nH]c3ccc(C4CCN(CC(=O)N(C)C)CC4)cc3c2C(C)C)cc2ncnn12 [Example 333, 2-(4-(3-isopropyl-2-(5-methoxy-[1,2,4]triazolo[1,5-a]pyridin-7-yl)-1H-indol-5-yl)piperidin-1-yl)-N,N-dimethylacetamide] |
| 1000 to 50000 | 100 to 1000 | < 100 | Cc1nc2cc(-c3[nH]c4ccc(C5CCN(C(=O)CN(C)C)CC5)cc4c3C(C)C)ccn2n1 [Example 538, 2-(dimethylamino)-1-(4-(3-isopropyl-2-(2-methyl-[1,2,4]triazolo[1,5-a]pyridin-7-yl)-1H-indol-5-yl)piperidin-1-yl)ethan-1-one] |
| 1000 to 50000 | < 100 | < 100 | CC(=O)N1CCC(N2CCC(c3ccc4[nH]c(-c5ccnc6[nH]ncc56)c(C(C)C)c4c3)CC2)CC1 [Example 823, 1-(4-(3-isopropyl-2-(1H-pyrazolo[3,4-b]pyridin-4-yl)-1H-indol-5-yl)-[1,4′-bipiperidin]-1′-yl)ethan-1-one] |
| 100 to 1000 | < 100 | < 100 | Cc1cc(-c2[nH]c3ccc(C4CCN(C(=O)CN(C)C)CC4)cc3c2C(C)C)cc2cncn12 [Example 531, 2-(dimethylamino)-1-(4-(3-isopropyl-2-(5-methylimidazo[1,5-a]pyridin-7-yl)-1H-indol-5-yl)piperidin-1-yl)ethan-1-one] |
| 1000 to 50000 | > 3130 | > 50000 | CNCCN1CCC(c2ccc3[nH]c(-c4cc5cc(OC)ccc5o4)c(C)c3c2)CC1 [Example 671, 2-(4-(2-(5-methoxybenzofuran-2-yl)-3-methyl-1H-indol-5-yl)piperidin-1-yl)-N-methylethan-1-amine] |
| 1000 to 50000 | 100 to 1000 | 100 to 1000 | CCc1c(-c2ccnc3[nH]cc(Cl)c23)[nH]c2ccc(C3CCNCC3)cc12 [Example 39, 3-chloro-4-(3-ethyl-5-(piperidin-4-yl)-1H-indol-2-yl)-1H-pyrrolo[2,3-b]pyridine] |
| 1000 to 50000 | 100 to 1000 | 100 to 1000 | Cc1cc(-c2[nH]c3ccc(C4CCN(C5COC5)CC4)cc3c2C(C)C)cc2nccn12 [Example 711, 7-(3-isopropyl-5-(1-(oxetan-3-yl)piperidin-4-yl)-1H-indol-2-yl)-5-methylimidazo[1,2-a]pyridine] |
| 100 to 1000 | 100 to 1000 | 100 to 1000 | Cc1cnc2ccc(-c3[nH]c4ccc(C5CCN(C(=O)CN(C)C)CC5)cc4c3C(C)C)cn12 [Example 522, 2-(dimethylamino)-1-(4-(3-isopropyl-2-(3-methylimidazo[1,2-a]pyridin-6-yl)-1H-indol-5-yl)piperidin-1-yl)ethan-1-one] |
